Earlier results in patent US9775789B2, “Topical liposome compositions containing phenolic anti-inflammatory agents and their methods of preparation” (D& J ROSEE INC., priority 2012, dated 2017).

What was measured:
[1] = test system: MRSA; details: all 53 MRSA clinical isolates
[2] = test system: tumor; details: topical application and UV radiation versus controls
[3] = test system: keratinocytes; details: 6-week application under occlusion
[4] = test system: T. rubrum
[5] = test system: keratinocytes; details: applied during 48 hours, then simulated solar radiation (2 MED); skin biopsy
[6] = test system: cultured keratinocytes; details: in vitro
[7] = test system: human skin
[8] = test system: cultured squamous carcinoma cells; details: in vitro
[9] = test system: MRSA; details: time-kill study
[10] = in vitro; superoxide anion and hydroxyl radicals
[11] = test system: atopic dermatitis (AD) type skin lesions; details: daily topical application after allergen extract; versus vehicle
[12] = test system: TNF-α and INF-γ; details: versus control; SEB intraperitoneally
[13] = test system: nuclear factor kappa beta (NF-κB) in normal human epidermal keratinocytes (NHEK); details: pretreatment of keratinocytes before UVB exposure

O=C(O[C@@H]1Cc2c(O)cc(O)cc2O[C@@H]1c1cc(O)c(O)c(O)c1)c1cc(O)c(O)c(O)c1 [EGCG, epigallocatechin gallate]
minimal inhibitory concentration (MIC) [1]: 32 to 128 µg/mL
tumor incidence and size [2]: significant reductions
epidermal thickness [3]: significant increase
proliferation of keratinocytes ([3]; versus vehicle-treated samples): significantly stimulated
susceptibility of T. rubrum compared with reference antifungals [4]: more susceptible than to flucytosine and similar to fluconazole
MIC ([4]; 11 clinical isolates of T. rubrum): 1-16 μg per mL
greater increase in keratinocyte cell numbers versus vehicle-treated [5]: 4 fold
effect on cultured keratinocytes [6]: dose-dependent stimulatory effect
UV-induced infiltration of inflammatory leukocytes into the skin ([7]; EGCG pretreatment): inhibited
UV-induced production of hydrogen peroxide, nitric oxide and lipid peroxide in both epidermis and dermis ([7]; topical application before a single UV exposure (4× MED), punch biopsies): markedly decreased
action against cultured squamous carcinoma cells (apoptosis) [8]: inhibitory action
bactericidal concentration ([9]; one isolate): 6 times the MIC
bacteriostatic concentration ([9]; one isolate): 1-2 times the MIC
bactericidal concentration, aqueous solution ([9]; equivalent of 6 times the MIC): ~0.04%
ROS scavenging activity [10]: superior to other tea catechins
clinical signs (erythema, edema, scaling and excoriation) [11]: significantly lessened
ear swelling [11]: significantly reduced
serum levels of TNF-α and INF-γ [12]: significantly reduced
UVB-induced activation of NFκB [13]: significant dose- and time-dependent inhibition
